Test: in vitro
Details: human, hela cells, % viability

| SMILES | viability at 28.5 h, 10 µM |
| --- | --- |
| COc1ccc(-c2nc3cc(NC(=O)COc4ccccc4[N+](=O)[O-])ccc3o2)cc1Cl [CBK263412] | 99.2% |
| CC1=C(C#N)c2nc(N)c(C#N)c(C)c2/C1=C\c1ccc(-c2ccc(C(=O)O)cc2)o1 [CBK263415] | 105% |
| O=C1c2ccccc2C(=O)N1CCCSc1nnc(-c2ccncc2)n1-c1ccccc1 [CBK263419] | 102% |
| Cc1cc([N+](=O)[O-])ccc1-c1ccc(C(=O)Nc2ccc(O)c(-c3nc4ccccc4s3)c2)o1 [CBK263421] | 93% |
| O=C(Nc1ccc(-c2nc3ccccc3o2)c(O)c1)c1ccc(-c2cccc(Cl)c2)o1 [CBK263422] | 95.4% |
| CCOC(=O)c1ccc(-c2ccc(C(=O)Nc3ccc(-c4nc5ccccc5o4)c(O)c3)o2)cc1 [CBK263428] | 99% |
| O=C(COc1ccc(I)cc1)Nc1cccnc1 [CBK263430] | 98.9% |
| O=C(O)c1ccc(Cl)c(-c2ccc(/C=N\Nc3ccc([N+](=O)[O-])cn3)o2)c1 [CBK263431] | 93.9% |
| Cc1ccc(Br)cc1S(=O)(=O)N1CCN(C(c2ccccc2)c2ccccc2)CC1 [CBK263433] | 95.3% |
| O=C(/C=C/c1ccc(-c2ccccc2[N+](=O)[O-])o1)Nc1ccc(-c2nc3ncccc3o2)cc1 [CBK263434] | 99.2% |
| Cc1ccc2oc(-c3cccc(NC(=O)c4ccc(-c5ccc([N+](=O)[O-])cc5)o4)c3C)nc2c1 [CBK263437] | 103% |
| O=C(Nc1ccc(O)c(-c2nc3ccccc3o2)c1)c1ccc(-c2ccc([N+](=O)[O-])cc2)o1 [CBK263439] | 96.4% |
| O=C(O)C12CC3CC(C(=O)O)(C1)CC(C(=O)O)(C3)C2 [CBK263442] | 84.4% |
| O=C(CC1(C(F)(F)F)NCCN1)c1cccc([N+](=O)[O-])c1 [CBK263443] | 83.1% |
| Nc1nc(SCCc2ccccc2)nc2sc3c(c12)CCCC3 [CBK263445] | 94.9% |
| CC(=O)c1ccc(OC(C)C)c(CSc2nc(O)cc(O)n2)c1 [CBK263446] | 91.5% |
| CCOc1cc(C=O)ccc1OCc1c(C)no[n+]1[O-] [CBK263449] | 92.1% |
| O=C(Cc1ccccc1)N1CCN(CCCc2ccccc2)CC1 [CBK263451G] | 96.8% |
| Cc1ccc(S(=O)(=O)N2CCN(CCCc3ccccc3)CC2)cc1 [CBK263453] | 95.2% |
| O=C(CN1C(=O)c2ccc([N+](=O)[O-])cc2C1=O)Nc1ccc(O)cc1C(=O)O [CBK263456] | 95.5% |
| c1ccc(CCCN2CCN(C3CCN(Cc4ccccc4)CC3)CC2)cc1 [CBK263457] | 84.8% |

| SMILES | viability at 28.5 h, 10 µM |
| --- | --- |
| CCn1c(C(O)c2ccc(OCc3ccccc3)cc2)nc2ccccc21 (stereo not shown) [CBK263458] | 96.1% |
| COc1ccc(OCC(=O)N2CCN(C3CCC(c4ccccc4)CC3)CC2)cc1 (stereo not shown) [CBK263459] | 97.7% |
| CC1=NN(c2ccc(S(N)(=O)=O)cc2)C(=O)/C1=C\c1ccc(-c2cc([N+](=O)[O-])ccc2C)o1 [CBK263460] | 106% |
| c1ccc(CCCN2CCN(Cc3ccccn3)CC2)cc1 [CBK263461G] | 91.6% |
| COc1cc(CN2CCN(C(=O)c3ccccc3)CC2)cc(OC)c1O [CBK263462] | 94.3% |
| Cc1ccc(S(=O)(=O)Oc2c(C=C3C(=O)CC(C)(C)CC3=O)[nH]c3ccccc23)cc1 [CBK263464] | 94.4% |
| C1=CCC(CN2CCN(C3CCN(Cc4ccccc4)CC3)CC2)CC1 (stereo not shown) [CBK263469] | 91.6% |
| Nc1nnc(CSCc2ccc(Cl)cc2Cl)s1 [CBK263471] | 100% |
| CC1=NN(c2ccc(S(N)(=O)=O)cc2)C(=O)/C1=C\c1ccc(-c2ccc(S(N)(=O)=O)cc2)o1 [CBK263476] | 97.4% |
| O=C(O)CCC(=O)Nc1ccc(NC(=O)c2ccccc2)c(Cl)c1 [CBK263478] | 86.8% |
| COc1ccc(CN2CCN(C(=O)c3ccccc3F)CC2)cc1OCc1ccccc1 [CBK263479] | 80.7% |
| CCN(CC)CCCN1C(=O)CSC1c1ccc2c(c1)OCO2 (stereo not shown) [CBK263482C] | 102% |
| CS(=O)(=O)N1CCN(C2CCN(Cc3ccccc3)CC2)CC1 [CBK263485] | 95.9% |
| O=[N+]([O-])c1cc(Br)cc(/C=N/Nc2nc3ccccc3[nH]2)c1O [CBK263486] | 89.1% |
| O=C(CSc1n[nH]c(=O)[nH]c1=O)N/N=C/c1ccc(O)cc1 [CBK263488] | 95.4% |
| NNC(=O)Cn1c(-c2ccccn2)nc2ccccc21 [CBK263489] | 108% |
| COc1ccc(C2=NN(CN3C(=O)C(=O)c4cc(Br)ccc43)C(c3cccc([N+](=O)[O-])c3)C2)cc1 (stereo not shown) [CBK263490] | 119% |
| CCC(=O)Nc1nc2ccccc2n1CCCN(C)C [CBK263492] | 102% |
| Cc1cccc(C(=O)NCCc2nc3ccccc3[nH]2)c1 [CBK263493] | 100% |
| CCC(=O)NNC(=O)c1cc(O)nc2ccccc12 [CBK263495] | 98.1% |
| COc1ccc(OC)c(NC(=O)COc2ccc(C(C)C)cc2)c1 [CBK263498] | 114% |

| SMILES | viability at 28.5 h, 10 µM |
| --- | --- |
| NS(=O)(=O)c1ccc(CCNC2CC(=O)N(CCc3ccccc3)C2=O)cc1 (stereo not shown) [CBK263502] | 93.4% |
| Cc1c(C)[n+]([O-])c2cc(N3CCN(C)CC3)c(Cl)cc2[n+]1[O-] [CBK263503] | 96.3% |
| CN1C(=O)/C(=C2\SC(=S)N(C(Cc3ccccc3)C(=O)O)C2=O)c2ccccc21 (stereo not shown) [CBK263507] | 99.6% |
| O=C(CSc1n[nH]c(=O)[nH]c1=O)N/N=C/c1cccs1 [CBK263508] | 98.9% |
| CC(=O)Nc1ccc(/C(C)=N\NC(=O)CCN2CCCCC2)cc1 [CBK263509] | 95.9% |
| Cc1ccc(OCC(=O)NNC(=O)C2COc3ccccc3O2)cc1 (stereo not shown) [CBK263511] | 95.4% |
| O=C(Nc1ccccc1C(=O)N1CCN(Cc2ccccc2)CC1)c1ccccn1 [CBK263512] | 106% |
| COc1cc(/C=N/NC(=O)CSc2n[nH]c(=O)[nH]c2=O)ccc1O [CBK263513] | 88.7% |
| O=C(NCCc1nc2ccccc2[nH]1)c1cccc(Cl)c1 [CBK263514] | 100% |
| CCN1C(=O)/C(=C\NN=C2CCCC2)c2ccc(C3=NNC(=O)CC3)cc21 [CBK263515] | 88.1% |
| CCN(CC)CCNC1=Nc2ccccc2CCC1 [CBK263520] | 94.7% |
| O=C1Nc2ccc(Br)cc2/C1=C1/SC(=S)N(C(Cc2ccccc2)C(=O)O)C1=O (stereo not shown) [CBK263521] | 95.6% |
| CC(Nc1n[nH]c(=O)[nH]c1=O)C(=O)N/N=C/c1ccccc1O (stereo not shown) [CBK263526] | 91.7% |
| COc1cc(/C=N/NC(=O)CSc2n[nH]c(=O)[nH]c2=O)cc(OC)c1O [CBK263527] | 92.9% |
| O=C(O)c1cc(NC(=O)c2cccc(Oc3ccc([N+](=O)[O-])cc3)c2)cc(C(=O)O)c1 [CBK263528] | 80.8% |
| O=C(CNc1n[nH]c(=O)[nH]c1=O)N/N=C/c1ccc(C(=O)O)cc1 [CBK263529] | 96.2% |
| O=C(O)CCCC(=O)NNC(=O)c1cccc(Br)c1 [CBK263530] | 99.9% |
| CC1=C(C)CC(C(=O)Nc2ccc3c(c2)oc2ccccc23)C(C(=O)O)C1 (stereo not shown) [CBK263533] | 102% |
| CC(=O)Nc1ccc(NC(=O)C2C3CCC(C3)C2C(=O)O)cc1 (stereo not shown) [CBK263534] | 93.9% |
| S=C1NCN(Cc2ccccc2)CN1c1ccccc1 [CBK263536] | 91.3% |
| O=C(NCCNc1ccc(Cl)cc1[N+](=O)[O-])c1ccccc1Br [CBK263538] | 102% |

| SMILES | viability at 28.5 h, 10 µM |
| --- | --- |
| Cc1cc(C)nc(Nc2nc3ccccc3[nH]2)n1 [CBK263539] | 102% |
| Cc1ccc(C(=O)Nc2ccccc2C(=O)NC(C)C(=O)O)cc1 (stereo not shown) [CBK263540] | 93.9% |
| COCc1cc(CN2CCN(C)CC2)c(O)c2ncccc12 [CBK263546] | 85.1% |
| Cc1ccc(OCC(=O)Nc2sc3c(c2C#N)CCCC3)cc1 [CBK263548] | 109% |
| CSc1nc2ccc(NC(=O)CSc3nnnn3-c3ccccc3)cc2s1 [CBK263549] | 88.3% |
| Oc1ccc(Nc2nc3nonc3nc2Nc2ccccc2)cc1 [CBK263551] | 94% |
| O=C(CSc1ccccn1)Nc1ccccc1-c1ccccc1 [CBK263553] | 90.6% |
| COc1ccccc1C(=O)O/N=C1/CCCc2c1ccc(OC)c2[N+](=O)[O-] [CBK263555] | 102% |
| CCCc1c(C)nc2ccccc2c1SCC(=O)O [CBK263558] | 93.7% |
| Cc1ccc(C(=O)Nc2ccccc2C(=O)N2CCN(Cc3ccccc3)CC2)cc1 [CBK263560] | 94% |
| CCOc1cccc(N2C(=O)CC(N3CCC(C(N)=O)(N4CCCCC4)CC3)C2=O)c1 (stereo not shown) [CBK263562] | 99% |
| Cc1ccc(SCCNS(=O)(=O)c2ccc(C)cc2)cc1 [CBK263564] | 108% |
| Cc1ccc(S(=O)(=O)NCCSc2ccccn2)cc1[N+](=O)[O-] [CBK263566] | 82.5% |
| Cc1ccc(S(=O)(=O)N(CC(O)CN2CCCCC2)c2ccccc2)cc1 (stereo not shown) [CBK263570] | 97.7% |
| Cc1ccc(S(=O)(=O)N(CC(O)CN2C(=O)NC(C)(C)C2=O)c2ccccc2[N+](=O)[O-])cc1 (stereo not shown) [CBK263572] | 95.3% |
| COc1cc(NC(=O)c2nn3c(c2Br)NC(c2cccs2)CC3C(F)(F)F)c(OC)cc1Cl (stereo not shown) [CBK263573] | 93.1% |
| c1ccc(CN(Cc2ccccc2)Cn2c3ccccc3c3ccccc32)cc1 [CBK263575] | 93.6% |
| CC(=O)Nc1ccc(S(=O)(=O)NCCSc2ccccn2)cc1 [CBK263576] | 90.1% |
| O=[N+]([O-])c1cc(C(F)(F)F)ccc1NCCNC(=S)Nc1ccc(Cl)cc1 [CBK263578] | 92.9% |

Same assay, conditions: human, hela cells, % viability, bulk resorufin, single well

| SMILES | viability at 28.5 h, 10 µM |
| --- | --- |
| CCOc1cc(C=C2C(=O)NC(=S)NC2=O)ccc1OCc1c(C)no[n+]1[O-] [CBK263468] | 99.3% |
| O=P(Nc1ccc(Cl)c(Cl)c1)(Nc1ccc(Cl)c(Cl)c1)Oc1ccc(Cl)cc1 [CBK263487] | 93.2% |
| O=C(Cn1cc(/C=C2/C(=O)NC(=S)N(c3ccc(Cl)cc3)C2=O)c2ccccc21)Nc1ccccc1 [CBK263535] | 98.4% |

Reference: paper PMC12040169 (PLOS Biology, 2025)
